Values of other authors as cited in patent publication US8962638B2, “Piperidine inhibitors of janus kinase 3” (Auspex Pharmaceuticals, Inc., priority 2009, dated 2015).

Experiments:
[1] = humans, 14C labeled CP-690550, oral

- mean terminal phase half-life of unchanged CP-690550 [1]: approximately 3.2 hours
- renal excretion of unchanged drug, share of clearance (in vivo): ~30%
- non-renal share of clearance (via hepatic metabolism by CYP3A4/5 and CYP2C19): approximately 70%
Compound: C[C@@H]1CCN(C(=O)CC#N)C[C@@H]1N(C)c1ncnc2[nH]ccc12 [CP-690550, 4-methyl-3-(methyl-7H-pyrrolo[2,3-d]pyrimidin-4-ylamino)-beta-oxo-(3R,4R)-1-piperidinepropanenitrile]
